Patent US20180008672A1, “ANTI-ACTIVIN A ANTIBODIES AND METHODS OF USE THEREOF FOR TREATING PULMONARY ARTERIAL HYPERTENSION” (Regeneron Pharmaceuticals, Inc., priority 2016, published 2018)
Marks after values point to notes of the source that are not given here.

Tests used:
[1] = test system: long-term rat monocrotaline in vivo model; test: long-term rat monocrotaline model, survival; set-up: species or system rat (Sprague Dawley); conditions: monocrotaline 40 mg/kg SC day 0; therapy from two weeks post-monocrotaline for 5 weeks; antibodies 40 mg/kg SC 2x/wk, macitentan 30 mg/kg PO daily; n=10
Experimental: To evaluate the survival benefit of anti-Activin A antibody in a pulmonary arterial hypertension model, a long-term rat monocrotaline in vivo model was used.
Six-to-seven week old Sprague Dawley rats were used. Rats were separated into treatment groups such that body weights were similar among different groups. Rats were subcutaneously administered either 40 mg/kg of monocrotaline or 5 mL/kg of saline at day 0. At 14 days post-injection, saline-injected rats were subcutaneously treated with saline at 5 mL/kg, twice a week for 5 weeks, unless they died prematurely.
The monocrotaline-injected rats were separated into 4 groups. One group (n=10) was orally administered macitentan at 30 mg/kg daily. A second group (n=10) was subcutaneously administered saline at 5 mL/kg twice a week. A third group (n=10) was subcutaneously treated with either an isotype control antibody, H4H6334P. A fourth group (n=10) was subcutaneously treated with the anti-Activin A antibody, H4H10446P2, at 40 mg/kg twice a week. These monocrotaline-treated rats were started on therapy at two weeks post-monocrotaline and continued for 5 weeks, unless the animal died prematurely.
Animals were monitored twice a day for signs of morbidity or mortality. Based on literature searches, 5-8 weeks after monocrotaline injection is typically a time where morbidity and mortality are likely. […]

[2] = test system: rat model of pulmonary hypertension induced by monocrotaline; test: rat model of pulmonary hypertension induced by monocrotaline; assay type: in vivo, rat (Sprague Dawley)
Experimental: To further evaluate the effect of anti-Activin A antibodies in pulmonary arterial hypertension, a rat model of pulmonary hypertension induced by monocrotaline was used.
Six to seven week old Sprague Dawley rats were used. Rats were separated into treatment groups such that body weights were similar among different groups. Rats were subcutaneously administered either 40 mg/kg of monocrotaline or 5 mL/kg of saline at day 0. At 14 days post injection, saline-injected rats were orally dosed with PEG 400 (at 50:50 v/v, Affymetrix Inc., #19957) at 5 mL/kg daily for two weeks, and monocrotaline-injected rats were separated into 5 groups with a group (n=9) orally dosed with PEG 400 at 5 mL/kg daily for two weeks, another group (n=12) orally administered macintentan at 30 mg/kg daily for two weeks, and three groups that were both orally dosed with PEG 400 at 5 mL/kg daily for two weeks and subcutaneously treated with either anti-Activin A antibodies, H4H10430P (n=9), H4H10446P2 (n=11), or an isotype control antibody (n=10) at 40 mg/kg twice a week for two weeks.
At day 27, pulmonary artery size and right ventricular function and dimensions of the rats were assessed using a high frequency ultrasound system (Vevo 2100, VisualSonics). For the assessment, rats were anesthetized (with 1.5% isoflurane at a rate of 1.0 cc/mL of medical grade air) and their temperature was monitored with a rectal temperature probe and held at approximately 37° C. with a heated platform (Vevo 2100, Visualsonics) and a warming lamp. Both brightness-mode (B-mode) and motion-mode (M-mode) imaging were used. B-mode imaging of the rat heart in cross-section was used to determine pulmonary artery cross-sectional area (PA CSA) at the level of the pulmonary valve. […] was used to determine the pulsed wave velocity time integral (VTI), which is derived from the area under the curve of representative Doppler tracings of blood flow through the pulmonary artery. Right ventricular stroke volume (RV SV) was calculated from the product of PA CSA and VTI. Right ventricular cardiac output (RV CO) was calculated from the product of SV and heart rate (HR). M-mode imaging was used to determine right ventricular free wall (RVFW) thickness during diastole and systole. Animals were returned to their home cages before right ventricular pressure assessment.
Right ventricular pressure was subsequently assessed for all treatment groups. Rats were anesthetized with isoflurane and were kept at approximately 37° C. using a platform (Heated Hard Pad 1, Braintree Scientific) and circulating heated water pump (T/Pump Classic, Gaymar Industries). The neck area for each rat was prepared for surgery by depilating over the right common carotid artery and right jugular vein. An incision was made and the right jugular vein was isolated with care as to not damage the carotid artery and/or the Vagus nerve. A piece of 5-0 silk suture was placed under the isolated jugular vein to allow for retraction of the vessel cranially, then a 26-guage needle was used to introduce a hole into the jugular vein. A pressure catheter (Micro-tip catheter transducer SPR-1000, Millar Instruments, Inc.) was inserted into the opening of the jugular vein and advanced past the right atrium into the right ventricle. The catheter was connected to pressure/volume instrument (MPVS-300, Millar Instruments, Inc.) that measured heart rate as well as both diastolic and systolic right ventricular pressures. These parameters were digitally acquired using a data acquisition system (PowerLab 4/35, ADlnstruments). LabChart Pro 7.0 software (ADlnstruments) was used to analyze right ventricular pressures. Readings were quantified from a 60 second interval of the pressure tracing (following a 2 minute period of recording to allow for pressure stabilization). The parameters analyzed were RV diastolic and systolic pressures, heart rate and ventricular contractile function. […]

[3] = monocrotaline 40 mg/kg SC day 0, antibodies 40 mg/kg SC 2x/wk, macitentan 30 mg/kg PO daily from day 14 for two weeks, ultrasound day 27

CCCNS(=O)(=O)Nc1ncnc(OCCOc2ncc(Br)cn2)c1-c1ccc(Br)cc1 [Macitentan]
mortality (animals that died during the study) [1]: Forty
PA CSA (Ave ± SEM) [2, 3]: 9.458 ± 0.476** mm^2
Right Ventricular cardiac output (Ave ± SEM) [2, 3]: 127.8 ± 11.7 mL/min
Stroke Volume (Ave ± SEM), right ventricular [2, 3]: 371.6 ± 27.9 µL
effect on right ventricular cardiac output (in words) ([2]; monocrotaline exposed rats): partially restored cardiac output
effect on PA CSA (in words) ([2]; monocrotaline-injected rats, FIG. 3A): restored PA CSA to that of saline-injected rats
effect on right ventricular stroke volume (in words) ([2]; monocrotaline-injected rats, FIG. 3B): partially restored stroke volume
effect on right ventricular hypertrophy, Fulton Index RV/(LV+S) (in words) ([2]; monocrotaline-injected rats, FIG. 3C): did not lessen right ventricular hypertrophy
effect on elevation of right ventricular pressures (in words) ([2]; monocrotaline-injected rats, catheter-based assessment, FIG. 3D): none of the treatment groups (Macitentan or anti-Activin A groups) showed attenuation in the elevation of right ventricular pressures
